According to paper PMC8397418, “Novel Bis-Thiazole Derivatives: Synthesis and Potential Cytotoxic Activity Through Apoptosis With Molecular Docking Approaches” (Frontiers in Chemistry, 2021):
Entries after “also recorded” stand apart in the source; their conditions may differ. Read-outs that look alike come from different tables or passages of the source. Each block holds one compound with its values, some of them ahead of it.

Columns and labels:
[1] = system: Hela cervical cancer cells; test: MTT cytotoxicity assay, Hela; format: cell-based; details: Homo sapiens, 72 h
Experimental: (§1) The synthesized derivatives were screened for their cytotoxic activities against five cancer cell lines (two breast cancer cell lines: MCF-7 and MDA-MB-231, two ovarian cancer cell lines: A2780 and KF-28, and one cervical cancer cell line: Hela). This study was performed using serial concentrations of 25, 50, 100, 150, and 200 µM of each compound using the MTT assay. Percentages of cell viability of the tested compounds with serial concentration against the tested panel of cell lines are depicted in Figure 1, in which there is a decrease in the cell viability with increasing concentrations in a dose–response pattern. […] Therefore, compounds 5a, 5b, and 5f were thought worthwhile to further investigate their effects as either cytotoxic or antiproliferative effects and whether any of them is an inducer of apoptotic cell death in the representative cancer cell lines KF-28 and A2780.
(§2) The human ovarian serous carcinoma cell line KF-28 was kindly provided by Prof. Yoshihiro Kikuchi (Department of Obstetrics and Gynecology, National Defense Medical College, Saitama, Japan), and A2780 cell line was purchased from the ECACC (ECACC 93112519). The cells were maintained in RPMI-1640 (Sigma-Aldrich, United States). The cervical cancer cell line, Hela cells, breast cancer cell line, MCF-7, and MDA-MB-231 were purchased from the ATCC and cultured in DMEM. Both types of media were supplemented with 2 mM L-glutamine (Lonza, Belgium), 10% FBS (Sigma, St. Louis, MO, United States), and 1% penicillin/streptomycin (Lonza, Belgium). All cells were incubated at 37°C in 5% CO2 atmosphere (NuAire). All cancer cell lines were cultured according to the routine tissue culture work as discussed by the Freshney group ([Freshney, 2010]). The cells were plated at a density of 5,000 cells in triplicates in a 96-well plate. On the next day, the cells were treated with the indicated compound(s) at the indicated concentrations in a final volume of 100 μL media. Cell viability was assessed after 72 h using MTT solution (Promega) ([Mosmann, 1983]). 20 μL of the reagent was added to each well, the plate was incubated for 3 h, […] was subsequently measured (570 nm) using a plate reader, and then the IC50 values were calculated using Excel ([Tantawy et al., 2020]).

C-myc in KF-28 cells = test: Western blot of C-myc expression; format: cell-based, human; details: two days, vs DMSO
Description: Pim-1 has been classified as a weak oncogene. However, a very strong synergism with regard to tumorigenicity occurs between Pim-1 and C-myc. This synergism is observed with bitransgenic mice overexpressing C-myc and Pim-1 in lymphoid tissue ([Möröy et al., 1991]). To further validate the simulation and docking data which introduced Pim-1 kinase as a potential target molecule for some of the tested compounds, we decided to check the effect of treatment with the selected compounds on the C-myc protein expression as a downstream target molecule known to be phosphorylated and stabilized by Pim-1 as a kinase ([Zhang et al., 2008]). […] Taking into consideration the fact that Pim-1 phosphorylates C-myc and controls its stability ([Zhang et al., 2008]) may conclude that the reduction of C-myc expression under the indicated compounds is due to the inhibition of Pim-1 activity (Figure 3). Therefore, the speculated inhibition of Pim-1 is supported by the above-mentioned qPCR data (Figure 3) and further supported by C-myc downregulation. Our results agree with the reported one which states that some thiazole derivatives are potent inhibitors against protein kinases including Pim-1 kinase ([Mohareb et al., 2019]).
Cell lysates were prepared by lysing cells in RIPA buffer (10 mM Tris (pH 7.4), 150 mM NaCl, 1% Triton X-100, 1% Na deoxycholate), supplemented with protease inhibitor cocktail (Sigma). Protein concentration of whole cell lysates was determined by the […] using the BSA kit (Pierce), and then equal protein amounts were heated to 95 °C for 5 min with sodium dodecyl sulfate (SDS) sample buffer (25 ml glycerol, 31.2 ml Tris buffer, 7.5 ml SDS, a dash of bromophenol blue/100 ml) and run on 15% SDS polyacrylamide gel electrophoresis (SDS-PAGE). Protein samples were then blotted onto PVDF membranes (Immobilon P, Watford, United Kingdom). The membranes were incubated in blocking solution (5% non-fat milk in PBS) for 1 h and then in primary antibody (anti-human C-myc pAb (Abcam; at dilution of 2:1,000) or GAPDH mAb (Santa Cruz; at dilution of 20:1,000)) overnight. After 3 × 10 min washes in TBS (0.1% Tween-20 in PBS), the membrane was incubated for 1 h at room temperature with horseradish-peroxidase–linked (HRP) secondary anti-rabbit or anti-mouse Ab (1:1,000 dilution in PBS). Signals on the membrane were developed using ECL reagent (Amersham, CA, United States) and then were imaged with the Chemidoc system (Bio-Rad, United States).

[2] = system: MDA-MB-231 breast cancer cells; test: MTT cytotoxicity assay, MDA-MB-231; format: cell-based; details: Homo sapiens, read-out: IC50 MDA-MB-231 (Breast)
Experimental: as §1, §2

[3] = system: MEF normal mouse embryonic fibroblast; test: MTT cytotoxicity assay, MEF; format: cell-based; details: n = 3
[4] = system: KF-28 ovarian cancer cells; test: MTT cytotoxicity assay, KF-28; format: cell-based, human; details: 72 h, read-out: IC50 KF-28 (Ovarian)
Experimental: as §1, §2

[5] = system: MCF-7 breast cancer cells; test: MTT cytotoxicity assay, MCF-7; format: cell-based, human; details: read-out: IC50 MCF-7 (Breast)
Experimental: as §1, §2

[6] = system: A2780 ovarian cancer cells; test: MTT cytotoxicity assay, A2780; format: cell-based, human; details: read-out: IC50 A2780 (Ovarian)
Experimental: as §1, §2

KF-28 cells [7] = test: Annexin V-FITC/PI apoptosis assessment; format: cell-based, human; details: 48 h, cisplatin 10 μM, DMSO control 0.45%
Experimental: Therefore, we decided to use such technique to investigate if the cytotoxic effect of the compounds indicated by MTT and the cell cycle experiments is apoptotic cell death or not. For that purpose, two cell lines, KF-28 and A2780, were stained by annexin V/PI after treatment with different compounds vs. DMSO for two days in parallel with cisplatin as a reference drug. Results from annexin staining analysis show appreciated annexin V–stained populations when cells are treated with compounds 5a–c, 5f, and 9. […] Similar results were obtained from the other cell line, A2780, treated with the same compounds (Figure 2B).
(§3) The cells were seeded into six-well culture plates (3–5 × 10^5 cells/well) and incubated overnight at 37°C, under 5% CO2. The cells were then treated with indicated compounds for 48 h. Next, media supernatants and the cells were collected and washed with ice-cold PBS. Next, the cells were stained with PI (10 mg/ml) for 30 min and analyzed for DNA contents using flow cytometry analysis using an FL2 (λex/em 535/617 nm) signal detector (ACEA Novocyte™ flow cytometer, ACEA Biosciences, Inc., San Diego, CA, United States). For each sample, 12,000 events are acquired. Cell cycle distribution is calculated using a CytoFLex machine and analyzed by CytExpert software. Flow cytometric methodologies (annexin V/PI staining with cell cycle analyses) are carried out as previously described ([Nafie et al., 2020a]; [Nafie et al., 2020b]; [Gad et al., 2020]).

KF-28 cells [8] = test: DNA content and cell cycle analysis (PI, flow cytometry); format: cell-based, human; details: 200 µM, 48 h
Experimental: Studying the cell cycle phases by measuring DNA content is a crucial test that helps in evaluating the impact of a given drug(s) on dividing cells and may reflect the mechanism through which this drug(s) affects those cells. […] Compounds 5a, 5b, 5c, 5f, 5g, and 9 were added to similar numbers of cells at 200 µM for 48 h, and then, the different cell cycle phases were assessed by flow cytometric analysis.
as §3

[9] = MTT, n = 3, read-out: IC50 Hela (Cervical)
[10] = Homo sapiens, MCF7, MTT, 72 h, n = 3
[11] = Homo sapiens, A2780, MTT, 72 h, n = 3

melting point: > 300 °C
SMILES: c1ccc2sc(-c3csc(=NN=C4CCC(=NN=c5[nH]c(-c6nc7ccccc7s6)cs5)CC4)[nH]3)nc2c1 [13a, 1,4-Bis((4-(2-benzothiazolyl)thiazol-2-ylidene)hydrazono)cyclohexane]
IC50 [1, 9]: > 200 µM
IC50 ([4]; Homo sapiens, MTT, n = 3): > 200 µM
IC50 [5, 10]: > 200 µM
IC50 [6, 11]: 27.2 µM
IC50 ([2]; MDA-MB-231, MTT, 72 h, n = 3): > 200 µM

melting point: 269 to 270 °C
SMILES: c1ccc2oc(-c3csc(=NN=C4CCC(=NN=c5[nH]c(-c6cc7ccccc7o6)cs5)CC4)[nH]3)cc2c1 [13b, 1,4-Bis((4-(2-benzofuryl)thiazol-2-ylidene)hydrazono)cyclohexane]

melting point: 241 to 242 °C
SMILES: O=c1oc2ccccc2cc1-c1csc(=NN=C2CCC(=NN=c3[nH]c(-c4cc5ccccc5oc4=O)cs3)CC2)[nH]1 [13c, 1,4-Bis((4-(3-coumarinyl)thiazol-2-ylidene)hydrazono)cyclohexane]
IC50 [1, 9]: > 200 µM
IC50 ([4]; Homo sapiens, MTT, n = 3): 85.7 µM
IC50 [5, 10]: 178 µM
IC50 [6, 11]: 33.5 µM

melting point: 230 to 231 °C
SMILES: Clc1ccc(-c2csc(=NN=C3CCC(=NN=c4[nH]c(-c5ccc(Cl)cc5)cs4)CC3)[nH]2)cc1 [13d, 1,4-Bis((4-(4-chlorophenyl)thiazol-2-ylidene)hydrazono)cyclohexane]
IC50 [1, 9]: > 200 µM
IC50 [5, 10]: > 200 µM

melting point: > 300 °C
SMILES: O=C1NC(=NN=C2CCC(=NN=C3NC(=O)C(=Cc4ccccc4)S3)CC2)SC1=Cc1ccccc1 [14a, 1,4-Bis((5-benzylidene-4-oxo-thiazolidin-2-ylidene)hydrazono)cyclohexane]

melting point: 269 to 270 °C
SMILES: Cc1ccc(C=C2SC(=NN=C3CCC(=NN=C4NC(=O)C(=Cc5ccc(C)cc5)S4)CC3)NC2=O)cc1 [14b, 1,4-Bis((5-(4-methylbenzylidene)-4-oxo-thiazolidin-2-ylidene)hydrazono)cyclohexane]

melting point: > 300 °C
SMILES: O=C1NC(=NN=C2CCC(=NN=C3NC(=O)C(=Cc4ccc(Cl)cc4)S3)CC2)SC1=Cc1ccc(Cl)cc1 [14c, 1,4-Bis((5-(4-chlorobenzylidene)-4-oxo-thiazolidin-2-ylidene)hydrazono)cyclohexane]

melting point: 290 to 291 °C
SMILES: O=C1NC(=NN=C2CCC(=NN=C3NC(=O)C(=Cc4ccc(Br)cc4)S3)CC2)SC1=Cc1ccc(Br)cc1 [14d, 1,4-Bis((5-(4-bromobenzylidene)-4-oxo-thiazolidin-2-ylidene)hydrazono)cyclohexane]

Second part, the compound before the results:

SMILES: Cc1[nH]c(=NN=C2CCC(=NN=c3[nH]c(C)c(N=Nc4ccc(Cl)cc4)s3)CC2)sc1N=Nc1ccc(Cl)cc1 [5c, 1,4-Bis((5-(4-chlorophenylazo)-4-methylthiazol-2-ylidene)hydrazono)cyclohexane]
IC50 [1, 9]: < 25 µM
C-myc protein expression (Western blot) (C-myc in KF-28 cells): observable downregulation; also recorded: Appreciated downregulation
IC50 ([2]; MDA-MB-231, MTT, 72 h, n = 3): 116 µM
IC50 [3]: > 200 µM

SMILES: Cc1[nH]c(=NN=C2CCC(=NN=c3[nH]c(C)c(N=Nc4ccc([N+](=O)[O-])cc4)s3)CC2)sc1N=Nc1ccc([N+](=O)[O-])cc1 [5d, 1,4-Bis((5-(4-nitrophenylazo)-4-methylthiazol-2-ylidene)hydrazono)cyclohexane]
IC50 ([1]; read-out: IC50 Hela (Cervical)): > 200 µM
IC50 ([4]; Homo sapiens): > 200 µM
IC50 ([5]; Homo sapiens, MCF7, 72 h): > 200 µM
melting point: > 300 °C
IC50 ([6]; Homo sapiens, A2780, 72 h): > 200 µM
IC50 ([2]; MDA-MB-231, 72 h): > 200 µM

SMILES: Cc1ccccc1N=Nc1sc(=NN=C2CCC(=NN=c3[nH]c(C)c(N=Nc4ccccc4C)s3)CC2)[nH]c1C [5e, 1,4-Bis((5-(2-tolylazo)-4-methylthiazol-2-ylidene)hydrazono)cyclohexane]
IC50 [1, 9]: > 200 µM
IC50 ([4]; Homo sapiens, MTT, n = 3): > 200 µM
IC50 [5, 10]: < 25 µM
IC50 [6, 11]: 70.6 µM
IC50 ([2]; MDA-MB-231, MTT, 72 h, n = 3): > 200 µM

SMILES: N.N.[Cl][Pt][Cl] [Cisplatin, cisplatin, reference compound]
Total apoptotic cell death (annexin V-positive cells) (KF-28 cells [7]): 25%
IC50 ([4]; MTT, n = 3): 9.29 µM
IC50 ([5]; MTT, 72 h, n = 3): 1.21 µM
IC50 ([6]; MTT, 72 h, n = 3): 1.56 µM

SMILES: O=C1CSC(=NN=C2CCC(=NN=C3NC(=O)CS3)CC2)N1 [compound 9, 1,4-Bis((4-oxo-thiazolidin-2-ylidene)hydrazono)cyclohexane]
IC50 [1, 9]: 111 µM
Total apoptotic cell death (annexin V-positive cells) (KF-28 cells [7]): did not induce appreciated apoptosis
IC50 ([4]; Homo sapiens, MTT, n = 3): 86.5 µM
IC50 [5, 10]: > 200 µM
IC50 [6, 11]: 103 µM
Cell cycle phase S population (KF-28 cells [8]): 6.5%
Cell cycle phase G1 population (KF-28 cells [8]; DMSO control 72%): 78%
IC50 ([2]; MDA-MB-231, MTT, 72 h, n = 3): > 200 µM
IC50 [3]: 1.06 µM

SMILES: CC(=O)c1sc(=NN=C2CCC(=NN=c3[nH]c(C)c(C(C)=O)s3)CC2)[nH]c1C [compound 11, 1,4-Bis((5-acetyl-4-methylthiazol-2-ylidene)hydrazono)cyclohexane]
melting point: 280 to 281 °C
